Assay results as given in patent US12486253B2, “Therapeutics for the degradation of mutant BRAF” (C4 THERAPEUTICS, INC., priority 2021, dated 2025).
Like-named read-outs stand apart in the source and are kept apart here.

Biological target: BRAF V600E (Homo sapiens, UniProt P15056, V600E)
Assay: HiBiT cellular BRAF^V600E degradation assay
Format: cell-based
Settings: for DC50: concentration at which 50% of total cellular BRAF^V600E is degraded; for Emax: read-out: HiBit 24 h Emax
[1] = A375.10 cells, 24 h, residual protein remaining in the cell

Sequence of BRAF V600E (P15056 whole entry V600E): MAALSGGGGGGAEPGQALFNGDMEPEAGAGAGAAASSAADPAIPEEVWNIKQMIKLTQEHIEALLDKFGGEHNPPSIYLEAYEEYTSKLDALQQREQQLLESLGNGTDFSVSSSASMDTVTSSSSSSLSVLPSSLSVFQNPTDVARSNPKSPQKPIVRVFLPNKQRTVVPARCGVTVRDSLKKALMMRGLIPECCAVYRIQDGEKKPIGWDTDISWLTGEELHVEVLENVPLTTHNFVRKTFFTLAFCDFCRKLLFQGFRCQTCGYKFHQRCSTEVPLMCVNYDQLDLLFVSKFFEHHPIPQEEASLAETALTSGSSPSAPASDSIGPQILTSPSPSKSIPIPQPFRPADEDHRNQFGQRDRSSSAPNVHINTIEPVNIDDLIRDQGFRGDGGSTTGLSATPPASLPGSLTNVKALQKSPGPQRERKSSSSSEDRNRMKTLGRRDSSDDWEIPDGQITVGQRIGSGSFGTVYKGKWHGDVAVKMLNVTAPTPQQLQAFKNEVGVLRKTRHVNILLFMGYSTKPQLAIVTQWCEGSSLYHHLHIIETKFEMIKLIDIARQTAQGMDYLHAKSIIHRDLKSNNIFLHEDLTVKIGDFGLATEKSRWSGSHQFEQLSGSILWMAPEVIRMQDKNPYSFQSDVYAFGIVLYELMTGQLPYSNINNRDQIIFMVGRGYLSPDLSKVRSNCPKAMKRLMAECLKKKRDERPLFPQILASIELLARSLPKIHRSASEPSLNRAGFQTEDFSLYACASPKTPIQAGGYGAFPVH

DC50 (A375.10 cells, 24 h) | Emax [1] | SMILES | Emax
56 nM | 10.4% | CCN(C)S(=O)(=O)Nc1ccc(F)c(Oc2ccc3ncn(C4COC5(CCN(C(=O)CN6CCC(c7ccc(NC8CCC(=O)NC8=O)cc7F)CC6)CC5)C4)c(=O)c3c2C)c1C#N (stereo not drawn) [Example 59, 3-[6-[2-cyano-3-[[ethyl(methyl)sulfamoyl]amino]-6-fluorophenoxy]-5-methyl-4-oxoquinazolin-3-yl]-8-[2-[4-[4-[(2,6-dioxopiperidin-3-yl)amino]-2-fluorophenyl]piperidin-1-yl]acetyl]-1-oxa-8-azaspiro[4.5]decane] | 
40.5 nM | 13% | CCN(C)S(=O)(=O)Nc1ccc(F)c(Oc2ccc3ncn([C@H]4COC5(CCN(C(=O)CN6CCN(c7ccc(C8CCC(=O)NC8=O)cc7F)CC6)CC5)C4)c(=O)c3c2)c1C#N (stereo partly drawn) [Example 60, (3R)-3-[6-[2-cyano-3-[[ethyl(methyl)sulfamoyl]amino]-6-fluorophenoxy]-4-oxoquinazolin-3-yl]-8-[2-[4-[4-(2,6-dioxopiperidin-3-yl)-2-fluorophenyl]piperazin-1-yl]acetyl]-1-oxa-8-azaspiro[4.5]decane] | 
21.1 nM | 8.44% | CC(C)S(=O)(=O)Nc1ccc(F)c(Oc2ccc3ncn([C@H]4COC5(CCN(C(=O)CN6CCC(c7ccc(NC8CCC(=O)NC8=O)cc7F)CC6)CC5)C4)c(=O)c3c2)c1C#N (stereo partly drawn) [Example 61, N-[2-cyano-3-[3-[(3R)-8-[2-[4-[4-[(2,6-dioxopiperidin-3-yl)amino]-2-fluorophenyl]piperidin-1-yl]acetyl]-1-oxa-8-azaspiro[4.5]decan-3-yl]-4-oxoquinazolin-6-yl]oxy-4-fluorophenyl]propane-2-sulfonamide] | 
9.48 nM | 15.4% | CCN(C)S(=O)(=O)Nc1ccc(F)c(Oc2ccc3ncn([C@H]4COC5(CCN(C(=O)CN6CCC(c7ccc(C8CCC(=O)NC8=O)cc7F)C(F)(F)C6)CC5)C4)c(=O)c3c2)c1C#N (stereo partly drawn) [Example 65, (3R)-3-[6-[2-cyano-3-[[ethyl(methyl)sulfamoyl]amino]-6-fluorophenoxy]-4-oxoquinazolin-3-yl]-8-[2-[4-[4-(2,6-dioxopiperidin-3-yl)-2-fluorophenyl]-3,3-difluoropiperidin-1-yl]acetyl]-1-oxa-8-azaspiro[4.5]decane] | 
11.3 nM | 10.2% | CCN(C)S(=O)(=O)Nc1ccc(F)c(Oc2ccc3ncn([C@H]4CCC5(CCN(C(=O)CN6CCC(c7ccc(C8CCC(=O)NC8=O)cc7F)C(F)(F)C6)CC5)C4)c(=O)c3c2)c1C#N (stereo partly drawn) [Example 66, 6-[2-cyano-3-[[ethyl(methyl)sulfamoyl]amino]-6-fluorophenoxy]-3-[(3S)-8-[2-[4-[4-(2,6-dioxopiperidin-3-yl)-2-fluorophenyl]-3,3-difluoropiperidin-1-yl]acetyl]-8-azaspiro [4.5]decan-3-yl]-4-oxoquinazoline] | 
8.77 nM | 8.05% | CCN(C)S(=O)(=O)Nc1ccc(F)c(Oc2ccc3ncn(C4COC5(CCN(C(=O)CN6CCC(c7ccc(NC8CCC(=O)NC8=O)cc7F)CC6)CC5)C4)c(=O)c3c2Br)c1C#N (stereo not drawn) [Example 68, 3-[5-bromo-6-[2-cyano-3-[[ethyl(methyl)sulfamoyl]amino]-6-fluorophenoxy]-4-oxoquinazolin-3-yl]-8-[2-[4-[4-[(2,6-dioxopiperidin-3-yl)amino]-2-fluorophenyl]piperidin-1-yl]acetyl]-1-oxa-8-azaspiro[4.5]decane] | 
6.63 nM | 9.52% | CCN(C)S(=O)(=O)Nc1ccc(F)c(Oc2ccc3ncn(C4CCC5(CCN(C(=O)CN6CCC(c7ccc(NC8CCC(=O)NC8=O)cc7F)CC6)CC5)C4)c(=O)c3c2Br)c1C#N (stereo not drawn) [Example 69, 5-bromo-6-[2-cyano-3-[[ethyl(methyl)sulfamoyl]amino]-6-fluorophenoxy]-3-[8-[2-[4-[4-[(2,6-dioxopiperidin-3-yl)amino]-2-fluorophenyl]piperidin-1-yl]acetyl]-8-azaspiro[4.5]decan-3-yl]-4-oxoquinazoline] | 
27.7 nM | 10.7% | CCN(C)S(=O)(=O)Nc1ccc(F)c(Oc2ccc3ncn(C4CCC5(CCN(C(=O)CN6CCC(c7ccc(NC8CCC(=O)NC8=O)cc7F)CC6)CC5)C4)c(=O)c3c2Cl)c1C#N (stereo not drawn) [Example 70, 5-chloro-6-[2-cyano-3-[[ethyl(methyl)sulfamoyl]amino]-6-fluorophenoxy]-3-[8-[2-[4-[4-[(2,6-dioxopiperidin-3-yl)amino]-2-fluorophenyl]piperidin-1-yl]acetyl]-8-azaspiro[4.5]decan-3-yl]-4-oxoquinazoline] | 
37.6 nM | 10.5% | CCN(C)S(=O)(=O)Nc1ccc(F)c(Oc2ccc3ncn(C4COC5(CCN(C(=O)CN6CCC(c7ccc(NC8CCC(=O)NC8=O)cc7F)CC6)CC5)C4)c(=O)c3c2Cl)c1C#N (stereo not drawn) [Example 71, 3-[5-chloro-6-[2-cyano-3-[[ethyl(methyl)sulfamoyl]amino]-6-fluorophenoxy]-4-oxoquinazolin-3-yl]-8-[2-[4-[4-[(2,6-dioxopiperidin-3-yl)amino]-2-fluorophenyl]piperidin-1-yl]acetyl]-1-oxa-8-azaspiro[4.5]decane] | 
39.9 nM | 8.63% | CCN(C)S(=O)(=O)Nc1ccc(F)c(Oc2ccc3ncn([C@H]4COC5(CCN(C(=O)CN6CCC(c7ccc(NC8CCC(=O)NC8=O)cc7F)CC6)CC5)C4)c(=O)c3c2F)c1C#N (stereo partly drawn) [Example 72, (3R)-3-[6-[2-cyano-3-[[ethyl(methyl)sulfamoyl]amino]-6-fluorophenoxy]-5-fluoro-4-oxoquinazolin-3-yl]-8-[2-[4-[4-[(2,6-dioxopiperidin-3-yl)amino]-2-fluorophenyl]piperidin-1-yl]acetyl]-1-oxa-8-azaspiro[4.5]decane] | 
31.5 nM | 11.6% | CCN(C)S(=O)(=O)Nc1ccc(F)c(Oc2ccc3ncn([C@@H]4COC5(CCN(C(=O)CN6CCC(c7ccc(NC8CCC(=O)NC8=O)cc7F)CC6)CC5)C4)c(=O)c3c2Br)c1C#N (stereo partly drawn) [Example 74, (3S)-3-[5-bromo-6-[2-cyano-3-[[ethyl(methyl)sulfamoyl]amino]-6-fluorophenoxy]-4-oxoquinazolin-3-yl]-8-[2-[4-[4-[(2,6-dioxopiperidin-3-yl)amino]-2-fluorophenyl]piperidin-1-yl]acetyl]-1-oxa-8-azaspiro[4.5]decane] | 
43.2 nM | 8.31% | CCN(C)S(=O)(=O)Nc1ccc(F)c(Oc2ccc3ncn([C@H]4COC5(CCN(C(=O)CN6CCC(c7cc(OC)c(NC8CCC(=O)NC8=O)cc7F)CC6)CC5)C4)c(=O)c3c2)c1C#N (stereo partly drawn) [Example 75, (3R)-3-[6-[2-cyano-3-[[ethyl(methyl)sulfamoyl]amino]-6-fluorophenoxy]-4-oxoquinazolin-3-yl]-8-[2-[4-[4-[(2,6-dioxopiperidin-3-yl)amino]-2-fluoro-5-methoxyphenyl]piperidin-1-yl]acetyl]-1-oxa-8-azaspiro[4.5]decane] | 
50.1 nM | 13.2% | CCN(C)S(=O)(=O)Nc1ccc(F)c(Oc2ccc3ncn([C@H]4COC5(CCN(C(=O)CN6CCCC(c7ccc(NC8CCC(=O)NC8=O)cc7F)CC6)CC5)C4)c(=O)c3c2)c1C#N (stereo partly drawn) [Example 76, (3R)-3-[6-[2-cyano-3-[[ethyl(methyl)sulfamoyl]amino]-6-fluorophenoxy]-4-oxoquinazolin-3-yl]-8-[2-[4-[4-[(2,6-dioxopiperidin-3-yl)amino]-2-fluorophenyl]azepan-1-yl]acetyl]-1-oxa-8-azaspiro[4.5]decane] | 
25.4 nM | 12.2% | CCN(C)S(=O)(=O)Nc1ccc(F)c(Oc2ccc3ncn(C4COC5(CCN(C(=O)CN6CCC(c7ccc(NC8CCC(=O)NC8=O)cc7F)CC6)CC5)C4)c(=O)c3c2N)c1C#N (stereo not drawn) [Example 81, 3-[5-amino-6-[2-cyano-3-[[ethyl(methyl)sulfamoyl]amino]-6-fluorophenoxy]-4-oxoquinazolin-3-yl]-8-[2-[4-[4-[(2,6-dioxopiperidin-3-yl)amino]-2-fluorophenyl]piperidin-1-yl]acetyl]-1-oxa-8-azaspiro[4.5]decane] | 
9.97 nM | 9.26% | CCN(C)S(=O)(=O)Nc1ccc(F)c(Oc2ccc3ncn(-c4cnc(N5CCN(C(=O)CN6CCC(c7ccc(NC8CCC(=O)NC8=O)cc7F)CC6)CC5)nc4)c(=O)c3c2)c1C#N (stereo not drawn) [Example 84, 6-[2-cyano-3-[[ethyl(methyl)sulfamoyl]amino]-6-fluorophenoxy]-3-[2-[4-[2-[4-[4-[(2,6-dioxopiperidin-3-yl)amino]-2-fluorophenyl]piperidin-1-yl]acetyl]piperazin-1-yl]pyrimidin-5-yl]-4-oxoquinazoline] | 
15.8 nM | 11% | CCN(C)S(=O)(=O)Nc1ccc(F)c(Oc2ccc3ncn(-c4ccc(N5CCN(C(=O)CN6CCC(c7ccc(NC8CCC(=O)NC8=O)cc7F)CC6)CC5)nc4)c(=O)c3c2)c1C#N (stereo not drawn) [Example 85, 6-[2-cyano-3-[[ethyl(methyl)sulfamoyl]amino]-6-fluorophenoxy]-3-[6-[4-[2-[4-[4-[(2,6-dioxopiperidin-3-yl)amino]-2-fluorophenyl]piperidin-1-yl]acetyl]piperazin-1-yl]pyridin-3-yl]-4-oxoquinazoline] | 

SMILES | DC50 (A375.10 cells, 24 h) | Emax [1] | Emax
CCN(C)S(=O)(=O)Nc1ccc(F)c(Oc2ccc3ncn([C@H]4CCC5(CCN(C(=O)CN6CCC(c7ccc(NC8CCC(=O)NC8=O)c(F)c7F)CC6)CC5)C4)c(=O)c3c2)c1C#N (stereo partly drawn) [Example 63, 6-[2-cyano-3-[[ethyl(methyl)sulfamoyl]amino]-6-fluorophenoxy]-3-[(3S)-8-[2-[4-[4-[(2,6-dioxopiperidin-3-yl)amino]-2,3-difluorophenyl]piperidin-1-yl]acetyl]-8-azaspiro[4.5]decan-3-yl]-4-oxoquinazoline] | 20.4 nM |  | 9.52%
CCN(C)S(=O)(=O)Nc1ccc(F)c(Oc2ccc3ncn([C@H]4CCC5(CCN(C(=O)CN6CCC(c7cc(F)c(NC8CCC(=O)NC8=O)cc7F)CC6)CC5)C4)c(=O)c3c2)c1C#N (stereo partly drawn) [Example 67, 6-[2-cyano-3-[[ethyl(methyl)sulfamoyl]amino]-6-fluorophenoxy]-3-[(3S)-8-[2-[4-[4-[(2,6-dioxopiperidin-3-yl)amino]-2,5-difluorophenyl]piperidin-1-yl]acetyl]-8-azaspiro[4.5]decan-3-yl]-4-oxoquinazoline] | 5.31 nM |  | 8.05%
